The values below are quoted from earlier work in patent US5952383A, “Pharmaceutical composition for oral delivery” (Negma-Steba International Development N.V., priority 1996, dated 1999).

Molecules are shown by their SMILES. Counter-ions that a name gives are not always drawn.

For data set [1] the following is noted: oral.

Consider `CC(=O)Oc1cccc2c1C(=O)c1c(OC(C)=O)cc(C(=O)O)cc1C2=O` [diacerein, diacetylrhein], for which, under “carbonate solutions and tetrahydrofuran”, the “solubility in carbonate solutions and in tetrahydrofuran” value was “sparingly soluble”. Also, the “solubility in water and in alcohols” value (water and alcohols) was “virtually insoluble”. In addition, where the note is “water and ethanol”, the “solubility in water and ethanol” value was “virtually insoluble”. Besides, the “absorption by the digestive tract” value in data set [1] is reported as “not totally absorbed”. Moreover, the undesirable side effects result in data set [1] (on account of incomplete absorption) is given as “laxative effects”.

For the compound `CC(=O)Oc1cccc2c1C(=O)c1c(OC(C)=O)cc(C(=O)O)cc1C2=O` [potassium salt of diacerein], for the setting “water, EP-A-243,968”, the solubility in water result is given as “water-soluble”.
